Test results reported in patent publication US6596863B2, “Medical composition containing nitroetheneamine Derivative or salt there of as active constituent” (Ishihara Sangyo Kaisha, Ltd., priority 1998, dated 2003).
Read-outs that look alike come from different tables or passages of the source.

How the values were obtained:
[1] = target: T1, human MMP-9 (gelatinase B) (Homo sapiens, UniProt P14780); assay: Inhibition activity against human MMP-9 (gelatinase B), fluorescent peptide substrate; assay type: biochemical
T1 construct: endogenous in cells; host or cells: HT1080 human fibrosarcoma cells (ATCC CCL-121), PMA-stimulated; enzyme purified from the culture supernatant
T1 sequence (P14780 107-707 limits assumed): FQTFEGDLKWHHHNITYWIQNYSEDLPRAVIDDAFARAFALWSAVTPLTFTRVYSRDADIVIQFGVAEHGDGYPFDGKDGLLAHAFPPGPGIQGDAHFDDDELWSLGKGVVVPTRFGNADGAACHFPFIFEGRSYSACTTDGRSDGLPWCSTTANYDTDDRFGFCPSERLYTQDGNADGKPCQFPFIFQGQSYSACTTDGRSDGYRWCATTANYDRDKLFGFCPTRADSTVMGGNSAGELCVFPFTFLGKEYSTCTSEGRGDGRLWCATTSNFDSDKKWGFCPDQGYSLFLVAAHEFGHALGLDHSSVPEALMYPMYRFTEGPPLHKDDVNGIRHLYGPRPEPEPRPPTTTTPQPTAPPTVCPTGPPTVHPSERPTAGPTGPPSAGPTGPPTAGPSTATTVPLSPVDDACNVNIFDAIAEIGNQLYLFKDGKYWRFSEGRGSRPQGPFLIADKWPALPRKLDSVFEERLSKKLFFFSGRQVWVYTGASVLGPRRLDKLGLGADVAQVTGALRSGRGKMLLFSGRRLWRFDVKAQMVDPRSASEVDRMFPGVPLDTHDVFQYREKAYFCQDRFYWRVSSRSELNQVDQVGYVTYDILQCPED
Description: Human MMP-9 (gelatinase B) was purified by the following method from a culture supernatant of HT1080 cells (human fibrosarcoma).
2.5×10^6 HT1080 cells (ATCC CCL-121, purchased from Dainippon Seiyaku) were inoculated to a tissue culture dish (Code No. 3020-100, manufactured by Iwaki Glass Co., Ltd.) having a diameter of 10 cm and containing 10 ml of Dulbecco's Modified Eagle Medium (DME, No. D-5648, manufactured by Sigma Co.) containing 10% fetal bovine serum (FBS: REHATUIN™, Code No. 1020-90, manufactured by Intergen Co.) and cultured for 72 hours at 37° C. in an atmosphere comprising 5% of CO2 and 95% of air (Carbon Dioxide Incubator LNA-122D Model, manufactured by Tabai Co.). Then, the medium was changed to 10 ml of a DME culture medium containing no FBS, and phorbol 12-myristate 13-acetate (PMA, code No. 163-114851, manufactured by Wako Pure Chemical Industries, Ltd.) was added so that the final concentration became 10 ng/ml. Under the same conditions, the culturing was carried out for further 20 hours, whereupon the culture supernatant was collected and subjected to cool centrifugation at 4° C. for 5 minutes (cool centrifugal separator, manufactured by Hitachi) to remove cell fragments.
The pH of a conditioned medium (50 ml) containing MMP-9, thus prepared, was adjusted to 8.0 with 0.2N NaOH. […] Namely, the above-mentioned conditioned medium was passed through DEAE-Sephacel (manufactured by Pharmacia, gel volume: about 35 ml) preliminarily equilibrated with 50 mM Tris-HCl, pH 8.0 (A buffer), and a non-adsorption fraction was collected. Then, it was added to Dye Matrix Gel Green A (manufactured by Amicon Co., gel volume: about 6 ml) preliminarily equilibrated with 50 mM Tris-HCl, pH 7.5/10 MM CaCl2/0.05% Brij 35/0.02% NaN3 (B buffer) and thoroughly washed with the same buffer, whereupon the adsorbed enzyme was eluted with a 1M NaCl-containing B buffer. About 7.5 ml of the eluted fraction was diluted twice with the B buffer and added to Gelatin-Sepharose 4B (manufactured by Pharmacia, gel volume: about 6 ml) preliminarily equilibrated with a 0.5 M NaCl-containing B buffer. It was thoroughly washed with a 0.5M NaCl-containing B buffer, and eluted with the B buffer containing 10% of dimethylsulfoxide (DMSO) and 0.5 M of NaCl. 5.5 ml of the eluted fraction was dialyzed against a 0.1 M NaCl-containing B buffer to obtain 5.2 ml of a purified enzyme solution. The purified MMP-9 standard product was confirmed to have a single band of 92 kDa by a protein staining by SDS electrophoresis, and further, it was confirmed to have an adequate gelatin decomposing activity by gelatinzymography (carried out in accordance with a method by Howard E. W. et al; Journal Biological Chemistry, Vol. 266, 13064-13069, 1991) and to have an adequate substrate decomposing activity by the after-mentioned measurement employing a fluorescent peptide substrate specific to MMP.
The inhibition activity against human MMP-9 was measured by the following method in accordance with the method by C. G. Knight et al (FEBS Letters, Vol, 296, 263-266, 1992) employing a fluorescent peptide substrate (7-methoxycoumarin-4-yl)Acetyl-Pro-Leu-Gly-Leu-(3-[2,4-dinitrophenyl]—Ala—Arg-NH2, Code 3163-VC, manufactured by Peptide Institute, Inc.
Further, as the case requires, commercially available human MMP-9 purified enzyme (No. YU-18003, manufactured by Kabushiki Kaisha Yagai Chuo Kenkyusho; used in a final concentration of from 0.0125 to 0.025 unit/ml, No. CC079, manufactured by Chemicon International, Inc.; used in a final concentration of 0.2 μg/ml) was used for the tests. […]

[2] = intermediates, compounds of the formula (IV), 1st measurement, read-out: MMP-9 inhibition activities IC50, 1st
[3] = intermediates, compounds of the formula (IV), average of 1st and 2nd (or single measurement), read-out: MMP-9 inhibition activities IC50, Average
[4] = compounds of the formula (I), 1st measurement, read-out: MMP-9 inhibition activities IC50, 1st
[5] = compounds of the formula (I), 2nd measurement, read-out: MMP-9 inhibition activities IC50, 2nd
[6] = compounds of the formula (I), average of 1st and 2nd (or single measurement), read-out: MMP-9 inhibition activities IC50, Average
[7] = intermediates, compounds of the formula (IV), 2nd measurement, read-out: MMP-9 inhibition activities IC50, 2nd

| SMILES | IC50 [1, 2] | IC50 [1, 3] | IC50 [1, 4] | IC50 [1, 5] | IC50 [1, 6] | melting point | IC50 [1, 7] |
| --- | --- | --- | --- | --- | --- | --- | --- |
| CSC(=C[N+](=O)[O-])NS(C)(=O)=O (single isomer, unassigned) [Intermediate 64] | 4.4 µM | 4.4 µM |  |  |  |  |  |
| O=[N+]([O-])C=C(NNc1ccccc1)Nc1ccccc1 [Compound No. 2] |  |  | 45.1 µM | 24.7 µM | 34.9 µM |  |  |
| CNC(=C[N+](=O)[O-])NNc1cccc(Cl)c1 [Compound No. 9] |  |  | 42.2 µM | 43.9 µM | 43.1 µM | 191 °C (dec.) |  |
| CNC(=C[N+](=O)[O-])NNc1cccc(C)c1 [Compound No. 15] |  |  | 46.8 µM | 52.7 µM | 49.8 µM | 189 °C (dec.) |  |
| CNC(=C[N+](=O)[O-])NN=Cc1ccccn1 [Compound No. 29, 2-pyridinecarbaldehyde 1-methylamino-2-nitroethenylhydrazone] |  |  | 30.8 µM | 24.5 µM | 27.7 µM |  |  |
| CNC(=C[N+](=O)[O-])NN(C)c1ncc(C(F)(F)F)cc1Cl [Compound No. 35, N-methyl-1-(2-methyl-2-(3-chloro-5-trifluoromethyl-2-pyridyl)hydrazino)-2-nitroetheneamine] |  |  | 14.6 µM | 22.1 µM | 18.4 µM |  |  |
| CS(=O)(=O)NC(=C[N+](=O)[O-])NN1CCOCC1 [Compound No. 163, N-(1-(N-morpholino)amino-2-nitroethenyl)methanesulfonamide] |  |  | 9.2 µM |  | 9.2 µM |  |  |
| CNC(=C[N+](=O)[O-])SC [Intermediate 5] | 26.9 µM | 26.9 µM |  |  |  |  |  |
| CCNC(=C[N+](=O)[O-])SC [Intermediate 6] | 33 µM | 33 µM |  |  |  |  |  |
| CSC(=C[N+](=O)[O-])NC(C)C [Intermediate 10] | 26.9 µM | 36.8 µM |  |  |  |  | 46.6 µM |
| CSC(=C[N+](=O)[O-])Nc1ccc(Cl)cc1 [Intermediate 19] | 29.9 µM | 32.8 µM |  |  |  |  | 35.6 µM |
| CSC(=C[N+](=O)[O-])NS(C)(=O)=O [Intermediate 57, N-(1-(methylthio)-2-nitroethenyl)methanesulfonamide] | 49.4 µM | 43.5 µM |  |  |  |  | 37.5 µM |
| CCS(=O)(=O)NC(=C[N+](=O)[O-])SC [Intermediate 59] | 11.4 µM | 11.4 µM |  |  |  |  |  |
| CONC(=C[N+](=O)[O-])SC [Intermediate 63] | 4.3 µM | 4.3 µM |  |  |  |  |  |
| CCCCCCCCNC(=C[N+](=O)[O-])NN [compound 46] |  |  | 36.2 µM | 34.8 µM | 35.5 µM |  |  |
| NNC(=C[N+](=O)[O-])Nc1ccc(Cl)cc1 [compound 51] |  |  | 27.3 µM | 32.1 µM | 29.7 µM |  |  |
| CNNC(=C[N+](=O)[O-])NC [compound 82] |  |  | 52.9 µM | 19 µM | 36 µM |  |  |

Next, values leading:

| IC50 [1, 2] | IC50 [1, 3] | IC50 [1, 4] | IC50 [1, 5] | IC50 [1, 6] | melting point | IC50 [1, 7] | SMILES |
| --- | --- | --- | --- | --- | --- | --- | --- |
|  |  | 66.2 µM | 14.2 µM | 36 µM |  |  | CNC(=C[N+](=O)[O-])NN(C)C [compound 83] |
|  |  | 43.4 µM | 14.2 µM | 28.8 µM |  |  | CNC(=C[N+](=O)[O-])NNc1ccccc1 [compound 84] |
|  |  | 52.8 µM | 41.1 µM | 47 µM |  |  | CCCCNC(=C[N+](=O)[O-])NN [compound 85] |
|  |  | 37.7 µM | 57.5 µM | 47.6 µM |  |  | CC(C)NC(=C[N+](=O)[O-])NN [compound 88] |
|  |  | 48.3 µM | 44.8 µM | 46.6 µM |  |  | CNC(=C[N+](=O)[O-])NN [compound 93] |
|  |  | 45.7 µM | 35.3 µM | 40.5 µM |  |  | CNC(=C[N+](=O)[O-])NNc1cc(C(F)(F)F)ncn1 [compound 97] |
|  |  | 15 µM | 35 µM | 25 µM |  |  | CNC(=C[N+](=O)[O-])NNS(C)(=O)=O [compound 108] |
|  |  | 24.3 µM | 43.5 µM | 33.9 µM |  |  | C=C1C(C)=NN/C(=C\[N+](=O)[O-])N1c1ccccc1 [compound 155] |
